# Measured values: ChEMBL document CHEMBL3046355, “Design, synthesis, and herbicidal activities of novel 2-cyanoacrylates containing isoxazole moieties” (2010)
# Experiments:
# Type in all cases: functional
# Brassica napus [1] = assay: Herbicidal activity against Brassica napus (oilseed rape) assessed as inhibition of weed growth at 375 g/ha using postemergence treatment protocol; details: post-emergence
# Brassica napus [2] = assay: Herbicidal activity against Brassica napus (oilseed rape) assessed as inhibition of weed growth at 1.5 kg/ha using preemergence treatment protocol; details: pre-emergence
# Amaranthus retroflexus [3] = assay: Herbicidal activity against Amaranthus retroflexus assessed as inhibition of weed growth at 150 g/ha using postemergence treatment protocol; details: post-emergence
# Brassica napus [4] = assay: Herbicidal activity against Brassica napus (oilseed rape) assessed as inhibition of weed growth at 75 g/ha using postemergence treatment protocol; details: post-emergence
# Echinochloa crus-galli [5] = assay: Herbicidal activity against Echinochloa crus-galli (barnyard grass) assessed as inhibition of weed growth at 1.5 kg/ha using preemergence treatment protocol; details: pre-emergence
# Digitaria sanguinalis [6] = assay: Herbicidal activity against Digitaria sanguinalis (hairy crabgrass) assessed as inhibition of weed growth at 1.5 kg/ha using post-emergence treatment protocol
# Amaranthus retroflexus [7] = assay: Herbicidal activity against Amaranthus retroflexus assessed as inhibition of weed growth at 75 g/ha using postemergence treatment protocol; details: post-emergence
# Amaranthus retroflexus [8] = assay: Herbicidal activity against Amaranthus retroflexus assessed as inhibition of weed growth at 375 g/ha using postemergence treatment protocol; details: post-emergence
# Digitaria sanguinalis [9] = assay: Herbicidal activity against Digitaria sanguinalis (hairy crabgrass) assessed as inhibition of weed growth at 1.5 kg/ha using pre-emergence treatment protocol
# Amaranthus retroflexus [10] = assay: Herbicidal activity against Amaranthus retroflexus assessed as inhibition of weed growth at 1.5 kg/ha using postemergence treatment protocol; details: post-emergence
# Brassica napus [11] = assay: Herbicidal activity against Brassica napus (oilseed rape) assessed as inhibition of weed growth at 150 g/ha using postemergence treatment protocol; details: post-emergence
# Echinochloa crus-galli [12] = assay: Herbicidal activity against Echinochloa crus-galli (barnyard grass) assessed as inhibition of weed growth at 1.5 kg/ha using postemergence treatment protocol; details: post-emergence
# Brassica napus [13] = assay: Herbicidal activity against Brassica napus (oilseed rape) assessed as inhibition of weed growth at 750 g/ha using postemergence treatment protocol; details: post-emergence
# Amaranthus retroflexus [14] = assay: Herbicidal activity against Amaranthus retroflexus assessed as inhibition of weed growth at 750 g/ha using postemergence treatment protocol; details: post-emergence
# Brassica napus [15] = assay: Herbicidal activity against Brassica napus (oilseed rape) assessed as inhibition of weed growth at 1.5 kg/ha using postemergence treatment protocol; details: post-emergence
# Amaranthus retroflexus [16] = assay: Herbicidal activity against Amaranthus retroflexus assessed as inhibition of weed growth at 1.5 kg/ha using preemergence treatment protocol; details: pre-emergence
Compound,inhibition at 375 g/ha (Brassica napus [1]) [%],inhibition at 1500 g/ha (Brassica napus [2]) [%],inhibition at 150 g/ha (Amaranthus retroflexus [3]) [%],inhibition at 75 g/ha (Brassica napus [4]) [%],inhibition at 1500 g/ha (Echinochloa crus-galli [5]) [%],inhibition at 1500 g/ha (Digitaria sanguinalis [6]) [%],inhibition at 75 g/ha (Amaranthus retroflexus [7]) [%],inhibition at 375 g/ha (Amaranthus retroflexus [8]) [%],inhibition at 1500 g/ha (Digitaria sanguinalis [9]) [%],inhibition at 1500 g/ha (Amaranthus retroflexus [10]) [%],inhibition at 150 g/ha (Brassica napus [11]) [%],inhibition at 1500 g/ha (Echinochloa crus-galli [12]) [%],inhibition at 750 g/ha (Brassica napus [13]) [%],inhibition at 750 g/ha (Amaranthus retroflexus [14]) [%],inhibition at 1500 g/ha (Brassica napus [15]) [%],inhibition at 1500 g/ha (Amaranthus retroflexus [16]) [%]
CCOCCOC(=O)/C(C#N)=C(\NCc1cc(-c2ccc(Cl)cc2)no1)C(C)C,100,10.6,26.1,29.6,0,64.1,8.7,100,0,100,36.3,33,100,100,100,68.7
CCOCCOC(=O)/C(C#N)=C(\NCc1cc(-c2ccccc2OC)no1)C(C)C,100,17.4,23.9,17.1,0,82,17.4,100,5.5,95.1,27,56.4,100,100,100,44.9
CCOCCOC(=O)/C(C#N)=C(\NCc1cc(C(C)C)no1)C(C)C,97.7,,0,52,5,48.4,0,54.6,0,100,92.8,12.5,100,100,100,100
CCOCCOC(=O)/C(C#N)=C(\NCc1cc(-c2ccccc2OC)no1)SC,15.8,19,,,0,52.3,,0,17.3,90.6,,52,43.8,16,100,47.8
CCOCCOC(=O)/C(C#N)=C(\NCc1cc(Br)no1)C(C)C,100,,90,100,22.6,42.1,46.5,100,0,100,100,66.5,100,100,100,60
CCOCCOC(=O)/C(C#N)=C(\NCc1cc(-c2ccc(Cl)cc2Cl)no1)SC,0,45,,,0,64.1,,0,15.6,89.9,,45.2,0,46,100,65.8
CCOCCOC(=O)/C(C#N)=C(\NCc1cc(C(C)C)no1)SC,52.3,,,,0,48.4,,0,0,94,,32.6,76.9,37.6,100,25
CCOCCOC(=O)/C(C#N)=C(\NCc1cc(-c2ccc(OC)cc2)no1)SC,57.5,10,,,0,32.5,,34.8,0,100,,0,94.6,87,100,0
CCOCCOC(=O)/C(C#N)=C(\NCc1cc(-c2ccc(C(C)(C)C)cc2)no1)SC,9.8,0,,,0,55.8,,28.3,0,100,,0,22.2,45.7,100,10
CCOCCOC(=O)/C(C#N)=C(\NCc1cc(-c2ccc(C(C)(C)C)cc2)no1)C(C)C,41.7,0,,,0,24.7,,54.3,0,100,,0,85.8,89.1,100,0
CCOCCOC(=O)/C(C#N)=C(\NCc1cc(-c2ccc(Cl)cc2)no1)SC,0,28.4,,,0,72.7,,4,14.8,89.9,,58.2,0,22,100,23.1
CCOCCOC(=O)/C(C#N)=C(\NCc1cc(Br)no1)SC,87,,,,2.4,55.3,,0,0,99.1,,36.8,93,0,100,0
CCOCCOC(=O)/C(C#N)=C(\NCc1cc(-c2ccccc2Cl)no1)C(C)C,100,,94.4,100,0,24,77,96,0,100,100,47.2,100,98.3,100,0
CCOCCOC(=O)/C(C#N)=C(\NCc1cc(-c2ccccc2)no1)SC,17.8,15.8,,,0,55.5,,7,0,100,,57,100,34,100,67.7
